The values that follow are results of earlier work, collected in patent publication US20170056383A1, “TOPICAL HERPES PAIN TREATMENT AND COMPOSITION” (priority 2015, published 2017).

This data set relates to Herpes Simplex Virus lesions. Particulars: applied to the lesion.

Consider `CCOC(=O)c1ccc(N)cc1` [benzocaine], for which the active working time entry is “about 15 minutes”.
